Test results taken from patent US20140248361A1, “HERBAL EXTRACT COMPOSITION AND A PROCESS THEREOF” (PRASAN SOLUTIONS (INDIA) PVT LTD, priority 2012, published 2014).

Legend:
[1] = Totox value of palm oil on storage; details: for days after which Totox value crosses threshold limit: threshold 30
Protocol: (§2) The shelf life of oil is studied by carrying out chemical analysis, which include studying peroxide value (represents extent of primary oxidation), Para-anisidine value (represents extent of secondary oxidation) and totox value (reflects total oxidation of oil). These parameters are determined for 1 kg of untreated oil and treated oil at every 15 days interval for samples stored at ambient temperature and at every 7 days interval for samples stored at 50° C. The treated oil being, the oil upon addition of 200 ppm of TBHQ (sample-A), 200 ppm of BHA (sample-B), 200 ppm and 500 ppm of pulverized green tea extract with 90% polyphenol (sample-C), 200 ppm and 500 ppm of rosemary extract (sample-D), 200 ppm and 500 ppm of green tea extract after cryogenic grinding (sample-E), 200 ppm and 500 ppm of crude green tea extract (sample-F) and PRESOL at 200 ppm and 500 ppm. The untreated oil is the control sample without any antioxidant.
(§3) The threshold limit for per oxide value under which oil can be used for safe consumption is 10 meq of O2/Kg oil. Similarly, the threshold limit of para-anisidine value and Totox value is 10 and 30, respectively.

[2] = Estimation of shelf life of palm oil (Rancimat temperature extrapolation); details: 200 ppm
Protocol: (§4) This is an aid for estimating the shelf life of oils and fats. The extrapolation makes use of the relationship between the measured induction time and the temperature given by van't Hoff's law. Several measurements are made at different temperatures and then extrapolated to the storage temperature. The values so obtained allow estimation of the storage stability of the oil or fat containing PRESOL.
(§5) The shelf life is calculated using Rancimat shelf life calculator.

[3] = Frying cycle analysis of palm oil (total polar compounds); details: palm oil
Protocol: (§1) Palm oil and sunflower oil with antioxidants added to it are obtained from a local refinery. Frying studies are carried out with control oil and by adding TBHQ (Sample A), BHA (Sample B), GT Pulverized (Sample C), ROS (Sample D), GT Cryo grinded (Sample E), GT Crude Extract (Sample F) and PRESOL, respectively to the oils. Experiments are carried out a concentration of 200 ppm and 500 ppm. Fresh potatoes of less reduced sugar content variety are used throughout the experiment which is purchased form a local supermarket. Oil samples are withdrawn from the fryer at the end of every day and stored at −4° C. until it is tested for quality parameters viz, total polar compounds. Polar compounds present in oil and fats are measured by column chromatography using standard method, ES ISO 8420:2012.

[4] = Oil stability index (Rancimat) of sunflower oil; details: 200 ppm
Protocol: (§6) As used herein, ‘Oil Stability Index (OSI)’ is an American Oil Chemists Society (AOCS) approved method that determines the relative resistance of fat and oil samples to oxidation, which is defined by the following equation—
(§7) The oil stability index is determined using the Metrohm's Rancimat (Metrohm 743 Rancimat).
4.0 g of sunflower oil is weighed into the reaction vessel. The reaction vessel filled with oil is placed in a heating block. The temperature of the block is maintained at 80° C., 100° C. and 120° C., respectively. The oil is heated at the said temperatures, followed by passing air at a flow rate of 20 L/h. Flowing of air through the oil produces peroxides during primary oxidation and organic acids having low molecular weight, aldehydes and ketones with typical rancid odor during the secondary oxidation phase. These compounds are conveyed by the air flow into measurement vessel containing distilled water where conductivity is being checked continuously by sensor.

[5] = Estimation of shelf life of sunflower oil (Rancimat temperature extrapolation); details: 200 ppm
Protocol: as §4, §5

[6] = Oil stability index (Rancimat) of palm oil; details: 200 ppm
Protocol: as §6, §7
4.0 g of palm oil is weighed into the reaction vessel. The reaction vessel filled with oil is placed in a heating block. The temperature of the block is maintained at 100° C., 120° C. and 140° C., respectively. The oil is heated at the said temperatures, followed by passing air at a flow rate of 20 L/h. Flowing of air through the oil produces peroxides during primary oxidation and organic acids having low molecular weight, aldehydes and ketones with typical rancid odor during the secondary oxidation phase. These compounds are conveyed by the air flow into measurement vessel containing distilled water where conductivity is being checked continuously by sensor.

[7] = Para-anisidine value of palm oil on storage
Protocol: as §2, §3

[8] = Peroxide value of palm oil on storage
Protocol: as §2, §3

[9] = Effect of particle size on antioxidant activity (Rancimat induction time) in palm oil; details: 200 ppm in palm oil; Rancimat 120° C.
Protocol: (§8) Effect of particle size analysis on antioxidant activity is analysed with the help of Rancimat (Metrohm 743) which gives oxidative stability index based on the induction time (h). Rancimat analysis is carried out at two different temperature in order to set relationship between induction time and temperature of the studies.
(§9) In this, we have analyzed the particle size of samples with the help of Particle Size Analyzer (Microtrac, S3500) and its antioxidant activity with the help of Rancimat (Metrohm 743).

[10] = Oil stability index (Rancimat) of almond oil; details: 200 ppm; for Induction Time: in h
Protocol: as §7
4.0 g of almond oil is weighed into the reaction vessel. The reaction vessel filled with oil is placed in a heating block. The temperature of the block is maintained at 100° C., 120° C. and 140° C., respectively. The oil is heated at the said temperatures, followed by passing air at a flow rate of 20 L/h. […] These compounds are conveyed by the air flow into measurement vessel containing distilled water where conductivity is being checked continuously by sensor.
The above experiment is repeated by adding 200 ppm of BHA (sample-B), 200 ppm of BHT (sample-B1), 500 ppm of alpha tocopherol (sample-B2) and PRESOL at 200 ppm, 500 ppm and 1000 ppm, respectively to almond oil. From the above experiment, oxidative stability index of untreated oil (control) and treated oil is calculated and the below table illustrates the induction time and the obtained oxidative stability.

Shelf life of canola oil = details: 200 ppm
Protocol: D. Determination of Shelf Life of Canola Oil in the Presence of PRESOL • Shelf life of canola oil is analyzed upon adding 200 ppm of TBHQ (sample-A), BHA (sample-B), green tea extract with 90% polyphenol (sample-C), rosemary extract (sample-D), green tea extract after cryogenic grinding (sample-E), and PRESOL, respectively to canola oil.

[11] = Effect of particle size on antioxidant activity (Rancimat induction time) in sunflower oil; details: 200 ppm in sunflower oil; Rancimat 100° C.
Protocol: as §8, §9

[12] = Oil stability index (Rancimat) of apricot oil; details: 200 ppm; for Induction Time at 200 ppm: in h
Protocol: as §6, §7
4.0 g of apricot oil is weighed into the reaction vessel. The reaction vessel filled with oil is placed in a heating block. The temperature of the block is maintained at 100° C., 120° C. and 140° C., respectively. The oil is heated at the said temperatures, followed by passing air at a flow rate of 20 L/h. Flowing of air through the oil produces peroxides during primary oxidation and organic acids having low molecular weight, aldehydes and ketones with typical rancid odor during the secondary oxidation phase. These compounds are conveyed by the air flow into measurement vessel containing distilled water where conductivity is being checked continuously by sensor.
The above experiment is repeated by adding 200 ppm of BHA (sample-B), 200 ppm of BHT (sample-B1), 500 ppm of alpha tocopherol (sample-B2) and PRESOL at 200 ppm, 500 ppm and 1000 ppm, respectively to apricot oil.

[13] = Frying cycle analysis of sunflower oil (total polar compounds); details: for Total Polar compounds of sunflower oil: 200 ppm
Protocol: as §1

[14] = ambient temperature, day 0, 200 ppm
[15] = ambient temperature, day 15, 200 ppm
[16] = ambient temperature, day 30, 200 ppm
[17] = ambient temperature, day 45, 200 ppm
[18] = ambient temperature, day 60, 200 ppm
[19] = ambient temperature, day 75, 200 ppm
[20] = ambient temperature, day 90, 200 ppm
[21] = ambient temperature, day 105, 200 ppm
[22] = ambient temperature, day 120, 200 ppm
[23] = ambient temperature, day 135, 200 ppm
[24] = ambient temperature, day 150, 200 ppm
[25] = ambient temperature, day 165, 200 ppm
[26] = ambient temperature, day 180, 200 ppm

COc1ccc(O)c(C(C)(C)C)c1 [Sample B, butylated hydroxyanisole]
days after which Totox value crosses threshold limit ([1]; 50° C.): 180 days
Totox value [1, 14]: 3.497
Totox value [1, 15]: 4.338
Totox value [1, 16]: 6.561
Totox value [1, 17]: 8.268
Totox value [1, 18]: 10.827
Totox value [1, 19]: 12.449
Totox value [1, 20]: 13.181
Totox value [1, 21]: 14.088
Totox value [1, 22]: 16.114
Totox value [1, 23]: 19.368
Totox value [1, 24]: 20.994
Totox value [1, 25]: 26.783
Totox value [1, 26]: 29.993
days after which Totox value crosses threshold limit ([1]; ambient temperature): 180 days
Shelf Life (days) at 30° C. [2]: 260.9 days
frying cycle after which threshold limit for total polar compounds is crossed [3]: 40 cycle
Induction Time ([4]; 80° C.): 50.39 h
Oxidative Stability Index (OSI) ([4]; 80° C.): 1.38
Induction Time ([4]; 100° C.): 13.33 h
Oxidative Stability Index (OSI) ([4]; 100° C.): 1.43
Induction Time ([4]; 120° C.): 2.64 h
Oxidative Stability Index (OSI) ([4]; 120° C.): 1.12
Shelf Life (days) at 30° C. [5]: 87.2 days
Induction Time ([6]; 100° C.): 43.33 h
Oxidative Stability Index (OSI) ([6]; 100° C.): 1.04
Induction Time ([6]; 120° C.): 9.88 h
Oxidative Stability Index (OSI) ([6]; 120° C.): 1.02
Induction Time ([6]; 140° C.): 2.51 h
Oxidative Stability Index (OSI) ([6]; 140° C.): 1.02
Para-anisidine value ([7]; 50° C., day 0, 200 ppm): 2.69
Para-anisidine value ([7]; 50° C., day 7, 200 ppm): 3.186
Para-anisidine value ([7]; 50° C., day 15, 200 ppm): 4.011
Para-anisidine value ([7]; 50° C., day 22, 200 ppm): 4.204
Para-anisidine value ([7]; 50° C., day 30, 200 ppm): 5.542
Para-anisidine value ([7]; 50° C., day 37, 200 ppm): 5.617
Para-anisidine value ([7]; 50° C., day 45, 200 ppm): 5.794
Para-anisidine value ([7]; 50° C., day 52, 200 ppm): 5.827
Para-anisidine value ([7]; 50° C., day 60, 200 ppm): 6.165
Para-anisidine value ([7]; 50° C., day 67, 200 ppm): 6.22
Para-anisidine value ([7]; 50° C., day 75, 200 ppm): 6.269
Para-anisidine value ([7]; 50° C., day 82, 200 ppm): 6.503
Para-anisidine value ([7]; 50° C., day 90, 200 ppm): 6.657
Para-anisidine value [7, 14]: 2.566
Para-anisidine value [7, 15]: 2.602
Para-anisidine value [7, 16]: 3.18
Para-anisidine value [7, 17]: 2.899
Para-anisidine value [7, 18]: 2.759
Para-anisidine value [7, 19]: 2.952
Para-anisidine value [7, 20]: 3.113
Para-anisidine value [7, 21]: 3.455
Para-anisidine value [7, 22]: 3.499
Para-anisidine value [7, 23]: 3.593
Para-anisidine value [7, 24]: 3.759
Para-anisidine value [7, 25]: 4.169
Para-anisidine value [7, 26]: 4.493
Peroxide value ([8]; 50° C., day 0, 200 ppm): 0.482
Peroxide value ([8]; 50° C., day 7, 200 ppm): 4.735
Peroxide value ([8]; 50° C., day 15, 200 ppm): 9.973
Peroxide value ([8]; 50° C., day 22, 200 ppm): 13.062
Peroxide value ([8]; 50° C., day 30, 200 ppm): 16.45
Peroxide value ([8]; 50° C., day 37, 200 ppm): 35.595
Peroxide value ([8]; 50° C., day 45, 200 ppm): 60.884
Peroxide value ([8]; 50° C., day 52, 200 ppm): 51.15
Peroxide value ([8]; 50° C., day 60, 200 ppm): 42.269
Peroxide value ([8]; 50° C., day 67, 200 ppm): 34.974
Peroxide value ([8]; 50° C., day 75, 200 ppm): 25.576
Peroxide value ([8]; 50° C., day 82, 200 ppm): 11.31
Peroxide value ([8]; 50° C., day 90, 200 ppm): 15.231
Peroxide value [8, 14]: 0.465
Peroxide value [8, 15]: 0.868
Peroxide value [8, 16]: 1.691
Peroxide value [8, 17]: 2.684
Peroxide value [8, 18]: 4.034
Peroxide value [8, 19]: 4.748
Peroxide value [8, 20]: 5.034
Peroxide value [8, 21]: 5.316
Peroxide value [8, 22]: 6.307
Peroxide value [8, 23]: 7.887
Peroxide value [8, 24]: 8.617
Peroxide value [8, 25]: 11.307
Peroxide value [8, 26]: 12.75
days after which peroxide value crosses threshold limit ([8]; ambient temperature, threshold 10 meq of O2/Kg oil): 165 days
Induction Period (h) of PO at 120° C. [9]: 9.88 h
Oxidative Stability Index (OSI) ([10]; 100° C.): 1.14
Induction Time ([10]; 100° C.): 25.14
Oxidative Stability Index (OSI) ([10]; 120° C.): 1.21
Induction Time ([10]; 120° C.): 6.11
Oxidative Stability Index (OSI) ([10]; 140° C.): 1.11
Induction Time ([10]; 140° C.): 1.52
Shelf Life (No. Of Days) (Shelf life of canola oil): 37 days
Induction Period (h) of SFO 100° C. [11]: 13.33 h
Oxidative Stability Index (OSI) ([12]; 100° C.): 1.08
Induction Time at 200 ppm ([12]; 100° C.): 29.16
Oxidative Stability Index (OSI) ([12]; 120° C.): 1.13
Induction Time at 200 ppm ([12]; 120° C.): 6.66
Oxidative Stability Index (OSI) ([12]; 140° C.): 1.06
Induction Time at 200 ppm ([12]; 140° C.): 1.57
Total Polar compounds of sunflower oil ([13]; frying cycle 0): 3.515
Total Polar compounds of sunflower oil ([13]; frying cycle 8): 6.958
Total Polar compounds of sunflower oil ([13]; frying cycle 16): 14.124
Total Polar compounds of sunflower oil ([13]; frying cycle 24): 20.105
Total Polar compounds of sunflower oil ([13]; frying cycle 32): 26.085
Total Polar compounds of sunflower oil ([13]; frying cycle 40): 31.692
frying cycle after which threshold limit for total polar compounds is crossed ([13]; sunflower oil): 40 cycle
